Activity calls are given as the source filed them. The rule behind the calls is not given here.

The species entered for one experiment is Bos taurus. In words: Inhibition of bovine brain tubulin polymerization at 5 uM after 20 mins by spectrophotometric analysis relative to control.
A further experiment concerns LNCaP. In words: Antiproliferative activity against human LNCAP cells after 96 hrs by SRB assay. It counts as functional, cell-based.
The test system of another experiment is A-375. In words: Antiproliferative activity against human A375 cells after 48 hrs by SRB assay. It counts as functional, cell-based. Particulars: A-375, 48 h.
Experiment [1] can be described thus: Antiproliferative activity against human paclitaxel-resistant PC3-TxR cells after 96 hrs by SRB assay. It counts as functional, cell-based.
The test system of another experiment is PC-3. Description: Antiproliferative activity against human PC3 cells after 96 hrs by SRB assay. It counts as functional, cell-based. Particulars: PC-3, 96 h.
Experiment [2] is described as follows: Antiproliferative activity against human WM164 cells after 48 hrs by SRB assay. The format is functional, cell-based. The settings on record: WM164, 48 h.

In the case of `CC(=O)O[C@H]1C(=O)[C@@]2(C)[C@H]([C@H](OC(=O)c3ccccc3)[C@]3(O)C[C@H](OC(=O)[C@H](O)[C@@H](NC(=O)c4ccccc4)c4ccccc4)C(C)=C1C3(C)C)[C@]1(OC(C)=O)CO[C@@H]1C[C@@H]2O`, the inhibition result in the experiment listed under Bos taurus is “inactive”.

Turning to `COc1ccc(C2C(C#N)=C(N)Oc3cc(N(C)C)ccc32)c2ccccc12` (stereo unspecified), the half-maximal inhibitory concentration (IC50) in the experiment on LNCaP came out at 760 nM; in the experiment with A-375, 440 nM; in experiment [1], 530 nM; with PC-3 it was 430 nM; in experiment [2] it was 490 nM.

For `CN(C)c1ccc2c(c1)OC(N)=C(C#N)C2c1cccc2c(Br)cccc12` (stereo unspecified), the IC50 in the experiment on LNCaP worked out at 280 nM; with A-375, 140 nM; in experiment [1], 210 nM; with PC-3, 390 nM; in experiment [2], 220 nM.

In the case of `CN(C)c1ccc2c(c1)OC(N)=C(C#N)C2c1ccc(F)c2ccccc12` (stereo unspecified), the IC50 in the experiment on LNCaP turned out to be 410 nM; in the experiment with A-375, 280 nM; in experiment [1], 290 nM; in the experiment with PC-3, 640 nM; in experiment [2], 470 nM.

The record behind these values is ChEMBL document CHEMBL2040728, “New substituted 4H-chromenes as anticancer agents” (Bioorg Med Chem Lett, 2012).
